Patent US7585460B2, “Method for inhibiting the biological acidification of water in contact with materials containing sulfur” (ENI S.p.A., priority 2003, dated 2009)

Legend:
Assay type in all cases: cell-based, Thiobacillus
[1] = test system: Thiobacilli; assay: Acidification of rainwater over submersed sulfur block wetted with Thiobacilli, outdoors (Example 8); settings: 30 g/l NaCl
Method: Two blocks of elemental sulfur with an upper surface of approximately 2500 cm^2 (8.5 Kg of sulfur) are positioned in two containers. The upper surface of each block of sulfur is wetted with 250 ml of a bacterial suspension of Thiobacilli containing over 10^8 bacteria per milliliter. The two blocks are subsequently submersed with rainwater. Sodium chloride is added to one of the containers until a concentration of 30 g/l is reached.
The containers are exposed to the outside environment for three months, care being taken to regularly replace the water possibly lost by evaporation. At the end of this period, the pH of the solution in the two containers is measured.

[2] = test system: Thiobacilli; assay: Acidification of rainwater in contact with solid sulfur test samples colonized by Thiobacilli (Example 5); settings: 33 g/l NaCl
Method: The following experimental systems were prepared, using test samples of solid sulfur (discoid tables each of about 13 g). • System A: Containing 2 test samples not colonized by microbial cells, placed on the bottom of the container, completely immersed in rainwater (sterilized at a low temperature by micro-filtration); • System A1: Containing two non-colonized test samples, only dampened—by means of a sprayer—with rainwater sterilized by micro-filtration. • System B: Containing 2 colonized test samples (previously immersed in a suspension of 10^8 cells/ml of Thiobacilli and left to dry in the air), placed on the bottom of the container, entirely immersed in micro-filtered rainwater; • System B1: Containing two colonized test samples as per the previous system, only dampened with rainwater sterilized by micro-filtration; • System C: Containing 2 colonized test samples entirely immersed in micro-filtered rainwater, in which 33 g/l of Nacl are dissolved; • System C1: containing 2 colonized test samples only dampened with rainwater sterilized by micro-filtration and containing 33 g/l of NaCl.
The pH variation measurements during 48 days of experimentation are represented in Table 4.

[3] = test system: Thiobacilli (consortium); assay: Effect of different salts on acidification, TM medium with sulfur powder and inoculated mixed culture (Example 7)
Method: The verification is aimed at discovering the effects deriving from the presence of different salts at varying concentrations on the same consortium.
A series of 12 100 ml flasks containing 50 ml of TM medium (with 0.4 g of sulfur powder), was inoculated with 1 ml of mixed culture containing 10^8 cells/ml.
• 3 control flasks containing TM and sulfur, with NaCl (0.16 M, 0.33 M, 0.56 M); • 3 flasks with TM, sulfur and Na2SO4 (0.12 M, 0.24 M, 0.56 M); • 3 flasks with TM, sulfur and KCl (0.13 M, 0.26 M, 0.56 M); • 3 flasks with TM, sulfur and KNO3 (0.09 M, 0.19 M, 0.56 M) The data collected are listed in Table 6.

[4] = test system: Thiobacilli (microbial consortium); assay: Comparison of NaCl and SLS, TM medium with sulfur flowers and inoculated mixed culture (Example 6); settings: for O.D. / p.H.: B: 33 g/l of NaCl
Method: The experiment was aimed at comparing the action of SLS, a known bacteriostatic for Thiobacilli, and Sodium Chloride on the same microbial consortium.
A series of 6 100 ml flasks containing 50 ml of TM medium (with 0.4 g of sulfur flowers), were inoculated with 1 ml of mixed culture containing 10^8 cells/ml.
• A—2 control flasks containing TM and sulfur, without NaCl; • B—2 flasks with TM, sulfur and 33 g/l of NaCl; • C—2 flasks with TM, sulfur and 20 mg/l of SLS (concentration used in literature as bacteriostatic) The pH values and the bacterial growth were measured over a period of 34 days, by means of the increase in the absorbance.

Structure (SMILES): [Cl-].[Na+] [NaCl, Sodium Chloride]
- pH ([1]; day 0): 6.0
- pH ([1]; day 10): 5.9
- pH ([1]; day 20): 5.8
- pH ([1]; day 30): 5.8
- pH ([1]; day 40): 5.8
- pH ([1]; day 90): 5.8
- pH values in the systems ([2]; System C1: colonized samples only dampened with rainwater, day 0): 6.0
- pH values in the systems ([2]; System C1: colonized samples only dampened with rainwater, day 3): 5.8
- pH values in the systems ([2]; System C1: colonized samples only dampened with rainwater, day 5): 5.8
- pH values in the systems ([2]; System C1: colonized samples only dampened with rainwater, day 7): 5.8
- pH values in the systems ([2]; System C1: colonized samples only dampened with rainwater, day 10): 5.8
- pH values in the systems ([2]; System C1: colonized samples only dampened with rainwater, day 12): 5.8
- pH values in the systems ([2]; System C1: colonized samples only dampened with rainwater, day 15): 5.8
- pH values in the systems ([2]; System C1: colonized samples only dampened with rainwater, day 21): 5.8
- pH values in the systems ([2]; System C1: colonized samples only dampened with rainwater, day 29): 5.8
- pH values in the systems ([2]; System C1: colonized samples only dampened with rainwater, day 32): 5.8
- pH values in the systems ([2]; System C1: colonized samples only dampened with rainwater, day 35): 5.8
- pH values in the systems ([2]; System C1: colonized samples only dampened with rainwater, day 38): 5.8
- pH values in the systems ([2]; System C1: colonized samples only dampened with rainwater, day 42): 5.8
- pH values in the systems ([2]; System C1: colonized samples only dampened with rainwater, day 46): 5.8
- pH values in the systems ([2]; System C1: colonized samples only dampened with rainwater, day 48): 5.8
- pH values in the systems ([2]; System C: colonized samples immersed in rainwater, day 0): 6.0
- pH values in the systems ([2]; System C: colonized samples immersed in rainwater, day 3): 6.0
- pH values in the systems ([2]; System C: colonized samples immersed in rainwater, day 5): 6.0
- pH values in the systems ([2]; System C: colonized samples immersed in rainwater, day 7): 5.8
- pH values in the systems ([2]; System C: colonized samples immersed in rainwater, day 10): 5.8
- pH values in the systems ([2]; System C: colonized samples immersed in rainwater, day 12): 5.8
- pH values in the systems ([2]; System C: colonized samples immersed in rainwater, day 15): 5.8
- pH values in the systems ([2]; System C: colonized samples immersed in rainwater, day 21): 5.8
- pH values in the systems ([2]; System C: colonized samples immersed in rainwater, day 29): 5.8
- pH values in the systems ([2]; System C: colonized samples immersed in rainwater, day 32): 5.8
- pH values in the systems ([2]; System C: colonized samples immersed in rainwater, day 35): 5.8
- pH values in the systems ([2]; System C: colonized samples immersed in rainwater, day 38): 5.8
- pH values in the systems ([2]; System C: colonized samples immersed in rainwater, day 42): 5.8
- pH values in the systems ([2]; System C: colonized samples immersed in rainwater, day 46): 5.8
- pH values in the systems ([2]; System C: colonized samples immersed in rainwater, day 48): 5.8
- PH ([3]; salt 0.16 M, day 0): 6.0
- PH ([3]; salt 0.16 M, day 2): 6.0
- PH ([3]; salt 0.16 M, day 6): 3.5
- PH ([3]; salt 0.16 M, day 9): 2.8
- PH ([3]; salt 0.16 M, day 12): 2.8
- PH ([3]; salt 0.16 M, day 15): 2.5
- PH ([3]; salt 0.16 M, day 18): 2.5
- PH ([3]; salt 0.16 M, day 20): 2.5
- PH ([3]; salt 0.16 M, day 24): 2.0
- PH ([3]; salt 0.16 M, day 28): 1.7
- PH ([3]; salt 0.16 M, day 30): 1.6
- PH ([3]; salt 0.16 M, day 40): 1.3
- PH ([3]; salt 0.33 M, day 0): 6.0
- PH ([3]; salt 0.33 M, day 2): 6.0
- PH ([3]; salt 0.33 M, day 6): 5.5
- PH ([3]; salt 0.33 M, day 9): 5.0
- PH ([3]; salt 0.33 M, day 12): 3.0
- PH ([3]; salt 0.33 M, day 15): 3.0
- PH ([3]; salt 0.33 M, day 18): 3.0
- PH ([3]; salt 0.33 M, day 20): 2.5
- PH ([3]; salt 0.33 M, day 24): 2.5
- PH ([3]; salt 0.33 M, day 28): 1.9
- PH ([3]; salt 0.33 M, day 30): 1.7
- PH ([3]; salt 0.33 M, day 40): 1.4
- PH ([3]; salt 0.56 M, day 0): 6.0
- PH ([3]; salt 0.56 M, day 2): 6.0
- PH ([3]; salt 0.56 M, day 6): 6.0
- PH ([3]; salt 0.56 M, day 9): 6.0
- PH ([3]; salt 0.56 M, day 12): 6.0
- PH ([3]; salt 0.56 M, day 15): 6.0
- PH ([3]; salt 0.56 M, day 18): 6.0
- PH ([3]; salt 0.56 M, day 20): 6.0
- PH ([3]; salt 0.56 M, day 24): 6.0
- PH ([3]; salt 0.56 M, day 28): 6.0
- PH ([3]; salt 0.56 M, day 30): 6.0
- PH ([3]; salt 0.56 M, day 40): 5.8
- efficacy of the treatment with respect to that with SLS ([4]; 33 g/l NaCl vs 20 mg/l SLS, possibly due to the different concentrations): greater efficacy
- inhibition of the acidification of water in contact with elemental sulfur ([4]; 33 g/l NaCl, 20 mg/l SLS): capable of inhibiting the acidification
- O.D. ([4]; day 0): 0.014
- p.H. ([4]; day 0): 6.0
- O.D. ([4]; day 3): 0.015
- p.H. ([4]; day 3): 6.0
- O.D. ([4]; day 5): 0.017
- p.H. ([4]; day 5): 6.0
- O.D. ([4]; day 8): 0.023
- p.H. ([4]; day 8): 5.8
- O.D. ([4]; day 11): 0.028
- p.H. ([4]; day 11): 5.8
- O.D. ([4]; day 16): 0.025
- p.H. ([4]; day 16): 5.8
- O.D. ([4]; day 21): 0.026
- p.H. ([4]; day 21): 5.8
- O.D. ([4]; day 23): 0.022
- p.H. ([4]; day 23): 5.8
- O.D. ([4]; day 28): 0.022
- p.H. ([4]; day 28): 5.8
- O.D. ([4]; day 31): 0.026
- p.H. ([4]; day 31): 5.8
